Measured values taken from article PMC3523469 (Investigational New Drugs, 2012).
Read-outs that look alike come from different tables or passages of the source.

Assay type: in vivo, Japanese patients

COc1cc2ncnc(Nc3ccc(F)c(Cl)c3)c2cc1NC(=O)/C=C/CN1CCCCC1 [dacomitinib, Dacomitinib]
3: Diarrhea, number of patients with treatment-related AE (30 mg QD (n = 3), All) | Rash, number of patients with treatment-related AE (30 mg QD (n = 3), All) | Diarrhea, number of patients with treatment-related AE (30 mg QD (n = 3), G1)
0: Nausea, number of patients with treatment-related AE (15 mg QD (n = 3), G3) | Palmar–plantar erythrodysesthesia, number of patients with treatment-related AE (15 mg QD (n = 3), G3) | Paronychia, number of patients with treatment-related AE (15 mg QD (n = 3), G3) | Proteinuria, number of patients with treatment-related AE (15 mg QD (n = 3), G3) | Rash, number of patients with treatment-related AE (15 mg QD (n = 3), G3) | Skin fissures, number of patients with treatment-related AE (15 mg QD (n = 3), G3) | Stomatitis, number of patients with treatment-related AE (15 mg QD (n = 3), G3) | Weight decreased, number of patients with treatment-related AE (15 mg QD (n = 3), G3) | Alanine aminotransferase increased, number of patients with treatment-related AE (30 mg QD (n = 3), All) | Aspartate aminotransferase increased, number of patients with treatment-related AE (30 mg QD (n = 3), All) | Blood bilirubin increased, number of patients with treatment-related AE (30 mg QD (n = 3), All) | ECG QT prolonged, number of patients with treatment-related AE (30 mg QD (n = 3), All) | Edema, number of patients with treatment-related AE (30 mg QD (n = 3), All) | Hematuria, number of patients with treatment-related AE (30 mg QD (n = 3), All) | Hypertrichosis, number of patients with treatment-related AE (30 mg QD (n = 3), All) | Leukopenia, number of patients with treatment-related AE (30 mg QD (n = 3), All) | Proteinuria, number of patients with treatment-related AE (30 mg QD (n = 3), All) | Skin fissures, number of patients with treatment-related AE (30 mg QD (n = 3), All) | Alanine aminotransferase increased, number of patients with treatment-related AE (30 mg QD (n = 3), G1) | Aspartate aminotransferase increased, number of patients with treatment-related AE (30 mg QD (n = 3), G1) | Blood bilirubin increased, number of patients with treatment-related AE (30 mg QD (n = 3), G1) | Decreased appetite, number of patients with treatment-related AE (30 mg QD (n = 3), G1) | Dry skin, number of patients with treatment-related AE (30 mg QD (n = 3), G1) | ECG QT prolonged, number of patients with treatment-related AE (30 mg QD (n = 3), G1) | Edema, number of patients with treatment-related AE (30 mg QD (n = 3), G1) | Fatigue, number of patients with treatment-related AE (30 mg QD (n = 3), G1) | Hematuria, number of patients with treatment-related AE (30 mg QD (n = 3), G1) | Hypertrichosis, number of patients with treatment-related AE (30 mg QD (n = 3), G1) | Leukopenia, number of patients with treatment-related AE (30 mg QD (n = 3), G1) | Palmar–plantar erythrodysesthesia, number of patients with treatment-related AE (30 mg QD (n = 3), G1) | Paronychia, number of patients with treatment-related AE (30 mg QD (n = 3), G1) | Proteinuria, number of patients with treatment-related AE (30 mg QD (n = 3), G1) | Skin fissures, number of patients with treatment-related AE (30 mg QD (n = 3), G1) | Weight decreased, number of patients with treatment-related AE (30 mg QD (n = 3), G1) | Alanine aminotransferase increased, number of patients with treatment-related AE (30 mg QD (n = 3), G2) | Aspartate aminotransferase increased, number of patients with treatment-related AE (30 mg QD (n = 3), G2) | Blood bilirubin increased, number of patients with treatment-related AE (30 mg QD (n = 3), G2) | Cheilitis, number of patients with treatment-related AE (30 mg QD (n = 3), G2) | Conjunctivitis, number of patients with treatment-related AE (30 mg QD (n = 3), G2) | Diarrhea, number of patients with treatment-related AE (30 mg QD (n = 3), G2) | ECG QT prolonged, number of patients with treatment-related AE (30 mg QD (n = 3), G2) | Edema, number of patients with treatment-related AE (30 mg QD (n = 3), G2) | Hematuria, number of patients with treatment-related AE (30 mg QD (n = 3), G2) | Hypertrichosis, number of patients with treatment-related AE (30 mg QD (n = 3), G2) | Leukopenia, number of patients with treatment-related AE (30 mg QD (n = 3), G2) | Nausea, number of patients with treatment-related AE (30 mg QD (n = 3), G2) | Proteinuria, number of patients with treatment-related AE (30 mg QD (n = 3), G2) | Skin fissures, number of patients with treatment-related AE (30 mg QD (n = 3), G2) | Alanine aminotransferase increased, number of patients with treatment-related AE (30 mg QD (n = 3), G3) | Aspartate aminotransferase increased, number of patients with treatment-related AE (30 mg QD (n = 3), G3) | Blood bilirubin increased, number of patients with treatment-related AE (30 mg QD (n = 3), G3) | Cheilitis, number of patients with treatment-related AE (30 mg QD (n = 3), G3) | Conjunctivitis, number of patients with treatment-related AE (30 mg QD (n = 3), G3) | Decreased appetite, number of patients with treatment-related AE (30 mg QD (n = 3), G3) | Diarrhea, number of patients with treatment-related AE (30 mg QD (n = 3), G3)
1: Cheilitis, number of patients with treatment-related AE (30 mg QD (n = 3), All) | Conjunctivitis, number of patients with treatment-related AE (30 mg QD (n = 3), All) | Decreased appetite, number of patients with treatment-related AE (30 mg QD (n = 3), All) | Dry skin, number of patients with treatment-related AE (30 mg QD (n = 3), All) | Fatigue, number of patients with treatment-related AE (30 mg QD (n = 3), All) | Nausea, number of patients with treatment-related AE (30 mg QD (n = 3), All) | Weight decreased, number of patients with treatment-related AE (30 mg QD (n = 3), All) | Cheilitis, number of patients with treatment-related AE (30 mg QD (n = 3), G1) | Conjunctivitis, number of patients with treatment-related AE (30 mg QD (n = 3), G1) | Nausea, number of patients with treatment-related AE (30 mg QD (n = 3), G1) | Rash, number of patients with treatment-related AE (30 mg QD (n = 3), G1) | Stomatitis, number of patients with treatment-related AE (30 mg QD (n = 3), G1) | Decreased appetite, number of patients with treatment-related AE (30 mg QD (n = 3), G2) | Dry skin, number of patients with treatment-related AE (30 mg QD (n = 3), G2) | Fatigue, number of patients with treatment-related AE (30 mg QD (n = 3), G2) | Stomatitis, number of patients with treatment-related AE (30 mg QD (n = 3), G2) | Weight decreased, number of patients with treatment-related AE (30 mg QD (n = 3), G2)
2: Palmar–plantar erythrodysesthesia, number of patients with treatment-related AE (30 mg QD (n = 3), All) | Paronychia, number of patients with treatment-related AE (30 mg QD (n = 3), All) | Stomatitis, number of patients with treatment-related AE (30 mg QD (n = 3), All) | Palmar–plantar erythrodysesthesia, number of patients with treatment-related AE (30 mg QD (n = 3), G2) | Paronychia, number of patients with treatment-related AE (30 mg QD (n = 3), G2) | Rash, number of patients with treatment-related AE (30 mg QD (n = 3), G2)
